Test results from US9097673B2, “Processes and kits for determining multi-drug resistance of cells” (ENZO LIFE SCIENCES, INC., priority 2010, dated 2015).

What was measured:
[1] = system: HeLa cell line; assay: Dye efflux flow cytometry MDR assay; format: cell-based, human; set-up: key to D-value, Verapamil / D-value, Novobiocin: KS D value, 0 to 1; negative if control brighter than sample
Description: (§1) Kolmogorov-Smirnov statistics measures the difference between two distribution functions and generates a D value ranging between 0 and 1.0, with higher values indicating a greater difference between the distribution functions. The D value generated by the KS statistics was modified by ascribing a negative value if the fluorescence of a negative control (no inhibitor) was brighter than the fluorescence of the sample with inhibitor. The method was one of those recommended by the First International MDR1 Methods Detection Workshop (St. Jude Children's Research Hospital, Memphis, Tenn.).
(§2) Cells were grown in tissue culture dishes and on the day of assay they were trypsinized and washed twice with ice-cold PBS. Post-wash, the cells were re-suspended in cold phenol red indicator-free medium at a density of 1×10^6/ml. For each detection set, eighteen tubes (6 tubes without inhibitor and 3 tubes for each inhibitor tested, in triplicates) each containing 2.5-5×10^5/cells were prepared. Cells were centrifuged at 200×g for 5 min, and after discarding supernatant, re-suspended at 1×10^6/ml in ice-cold indicator-free medium containing Fluo-8™ AM or Rhod-4™ AM probes. Additionally, an aliquot of non-stained cells was prepared for background fluorescence measurements. Cells were incubated with the probe(s) on ice for 60 min, than centrifuged at 200×g for 5 min. After discarding the supernatant, cells were either washed twice with PBS or simply were spun down to remove the excess of the probe and resuspended at 5×10^5 cells/sample in 0.5 ml of following solutions:
(§3) 1. warm (37° C.) indicator-free medium containing vehicle only (3 tubes)
(§4) 2. warm (37° C.) indicator-free medium containing inhibitor (3 tubes for each inhibitor tested)
(§5) 3. ice-cold indicator-free medium (3 tubes)
(§6) Tube sets 1 and 2 were immediately transferred to a water bath (37° C.) and incubated for 90 min. Tube set 3 was kept on ice. Post incubation, 4 ml of ice-cold indicator-free medium was added per tube, tubes were centrifuged at 200×g for 5 min, supernatant was discarded, and cell pellet was re-suspended in the cold indicator-free medium and centrifuged again. Finally, cells were re-suspended in 0.5 ml of cold indicator-free medium and maintained on ice until analysis. Alternatively, cells were analyzed without washing. Flow cytometry experiments were performed as described in Example 3.

[2] = system: A549 cell line; assay: Dye efflux flow cytometry MDR assay; format: cell-based, human; set-up: key to D-value, Verapamil / D-value, Novobiocin: KS D value, 0 to 1; negative if control brighter than sample; details: A549, dye efflux
Description: as §1, §2, §3, §4, §5, §6

[3] = system: CHO K1 cell line; assay: Dye uptake flow cytometry MDR assay; format: cell-based, hamster; details: CHO K1, dye uptake;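 further: flow cytometry of dye-loaded cells, Kolmogorov-Smirnov D value (0 to 1.0) comparing fluorescence with versus without inhibitor, made negative when the uninhibited control was brighter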
Procedure: (§10) Concentrations of the modulators used in the experiments were non-toxic to the cells (based upon standard 3-(4,5-Dimethylthiazol-2-Yl)-2,5-Diphenyltetrazolium Bromide (MTT) testing, data not shown). Fluo-8™ was used in all experiments at 5 μM, and Rhod-4™—at 4 μM final concentrations.

[4] = system: Hep G2 cells; assay: Dye uptake flow cytometry MDR assay; format: cell-based, human; set-up: key: Kolmogorov-Smirnov D statistic comparing fluorescence distributions; details: HepG2, dye uptake
Procedure: (§7) Cells were grown on tissue culture dishes and on the day of assay were trypsinized and washed twice with warm (37° C.) phosphate-buffered saline (PBS). Post-wash, the cells were re-suspended in warm phenol red indicator-free medium at a density of 1×10^6/ml. For each detection set, sixteen tubes (5 samples in triplicates plus non-stained control for background fluorescence) in numbered tubes each containing 5×10^5/cells (0.5 ml) were prepared. […] After incubation for 5 min at 37° C., 0.25 ml of warm medium with Fluo-8™ AM probe (5 μM final concentration) or Rhod-4™ AM probe (2 μM final concentration) was added to each tube excluding non-stained control that receives plain medium and cells were incubated for 30 min at 37° C. and analyzed immediately by flow cytometry. In the second set of the tubes, the reaction was stopped by rapid centrifugation (1 min) at relatively low speed (200×g). After wash with ice-cold PBS and discarding the supernatant, cells were re-suspended in 0.5 ml of ice-cold medium and kept on ice until flow cytometry analysis. The third set of cells simply was spun down (1 min, 200×g) to remove the excess of the probe, resuspended in ice-cold medium and kept on ice until flow cytometry analysis.
(§8) Flow cytometry experiments were performed using a FACS Calibur benchtop flow cytometer (BD Biosciences) equipped with a blue (488 nm) laser, and the signals were registered in the FITC (530/30 filter), PE (585/42 filter) and PerCP (670 LP filter) channels. Fluo-8™ dye fluorescence was measured in the FL1 channel, and Rhod-4™ dye fluorescence—in the FL2 channel. Flow cytometry data were analyzed by comparison of median fluorescence or using Kolmogorov-Smirnov statistics [Young, J Histochem Cytochem 25:935-941 (1977)] or by calculating MAF values (MDR Activity Factor) using the following formula: MAF=100*((MFIinh−MFI0)/MFIinh), where MFIinh and MFI0 are mean fluorescence intensity values measured in the presence and absence of inhibitor [Hollo et al., Biochem Piophys Acta. 1191:384-388 (1994)].
(§9) Both human ileocecal colorectal carcinoma cell line HCT-8 (reported to over-express P-gp and, to a lesser extent, MRP [Hunter et al., Br J Cancer. 64:437-444 (1991); Collington et al., Biochem Pharmacol 44:417-424 (1992)] and hepatocellular carcinoma Hep G2 (reported to over-express MRP [Roelofsen et al., Gastroenterology 112:511-521 (1997), Cantz et al., Am J Physiol Gastrointest Liver Physiol. 278:G522-G531 (2000)] were obtained from ATCC. HCT-8 cells were routinely cultured in RPMI-1640 Medium with 2 mM L-glutamine, 10 mM HEPES, 1 mM sodium piruvate, 4.5 g/L glucose, 1.5 g/L sodium bicarbonate (ATCC), supplemented with 10% horse serum (ATCC) and 100 U/ml penicillin, 100 ug/ml streptomycin (Sigma-Aldrich, St. Louis, Mo.). Hep G2 cells were routinely cultured in Eagle's Minimum Essential Medium with low glucose (ATCC), supplemented with 10% heat inactivated fetal bovine serum (ATCC) and 100 U/ml penicillin, 100 ug/ml streptomycin (Sigma-Aldrich, St. Louis, Mo.). Cell cultures were maintained in a humidified incubator at 37° C., with 5% CO2 atmosphere. Stock solutions of the probes and inhibitors were prepared, as described in Examples 2 and 3. Cells were grown in tissue culture dishes and on the day of assay were treated according to a dye uptake protocol and analyzed by flow cytometry, as described in Example 3.

[5] = system: HCT-8 cells; assay: Dye uptake flow cytometry MDR assay; format: cell-based, human; set-up: key: Kolmogorov-Smirnov D statistic comparing fluorescence distributions; details: HCT-8, dye uptake
Procedure: as §7, §8, §9

[6] = system: A549 cell line; assay: Dye uptake flow cytometry MDR assay; format: cell-based, human; details: A549, dye uptake
Procedure: as §10

[7] = system: CHO K1 cell line; assay: Dye efflux flow cytometry MDR assay; format: cell-based, hamster; set-up: key to D-value, Verapamil / D-value, Novobiocin: KS D value, 0 to 1; negative if control brighter than sample; details: CHO K1, dye efflux
Description: as §1, §2, §3, §4, §5, §6

[8] = system: HeLa cell line; assay: Dye uptake flow cytometry MDR assay; format: cell-based, human; details: HeLa, dye uptake
Procedure: as §10

[9] = kept on ice without inhibitor (Table 9)
[10] = representative experiment (Table 9)
[11] = average of three representative experiments (Table 6)
[12] = representative experiment (Table 8)

CC(=O)OCOC(=O)CN(CC(=O)OCOC(C)=O)Cc1cc2c(cc1OC(C)=O)Oc1cc(OC(C)=O)c(CN(CC(=O)OCOC(C)=O)CC(=O)OCOC(C)=O)cc1C21OC(=O)c2ccccc21 [Calcein AM]
D-value, 4° C. [1, 9]: 0.07
D-value, Cyclosporine A [1, 10]: 0.08
D-value, Novobiocin [1, 10]: 0.04
D-value, Probenecid [1, 10]: 0.62
D-value, Verapamil [1, 10]: 0.1
D-value, 4° C. [2, 9]: 0.50
D-value, Cyclosporine A [2, 10]: 0.35
D-value, Novobiocin [2, 10]: 0.15
D-value, Probenecid [2, 10]: 0.40
D-value, Verapamil [2, 10]: 0.03
D-value, Fumitremorgan C [3, 11]: 0.17
D-value, Probenecid [3, 11]: 0.77
D-value, Verapamil [3, 11]: 0.74
D-value, Cyclosporine A [3, 12]: 0.96
D-value, Novobiocin [3, 12]: 0.06
D-value, Probenecid [3, 12]: 0.70
D-value, Verapamil [3, 12]: 0.93
D-value, CyclosporinA [4]: 0.29
D-value, MK-571 [4]: 0.29
D-value, Novobiocin [4]: 0.02
D-value, Verapamil [4]: 0.13
D-value, CyclosporinA [5]: 0.31
D-value, MK-571 [5]: 0.16
D-value, Novobiocin [5]: 0.44
D-value, Verapamil [5]: 0.71
D-value, Fumitremorgan C [6, 11]: 0.04
D-value, Probenecid [6, 11]: 0.36
D-value, Verapamil [6, 11]: 0.17
D-value, Cyclosporine A [6, 12]: 0.47
D-value, Novobiocin [6, 12]: 0.03
D-value, Probenecid [6, 12]: 0.27
D-value, Verapamil [6, 12]: 0.15
D-value, 4° C. [7, 9]: 0.65
D-value, Cyclosporine A [7, 10]: 0.31
D-value, Novobiocin [7, 10]: 0.13
D-value, Probenecid [7, 10]: 0.47
D-value, Verapamil [7, 10]: 0.26
D-value, Fumitremorgan C [8, 11]: 0.03
D-value, Probenecid [8, 11]: 0.06
D-value, Verapamil [8, 11]: 0.17
D-value, Cyclosporine A [8, 12]: 0.14
D-value, Novobiocin [8, 12]: 0.09
D-value, Probenecid [8, 12]: 0.09
D-value, Verapamil [8, 12]: 0.13
